Reference: patent US12668600B2 (Kumquat Biosciences Inc., priority 2023, dated 2026)
pIC50: −log10 of the molar value.

Tests used:
Type in all cases: biochemical
KRAS G12D = biological target: T1, KRAS G12D (Homo sapiens, UniProt P01116, G12D); assay: HTRF KRAS-SOS1 interaction assay, KRAS G12D; settings: binned ≤2 μM / >2 μM, read-out: Inhibition of KRAS G12D (IC50)
T1 construct: made in house; host or cells: E. coli, e.g. BL21 (DE3)
Outline: (§1)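 Inhibition of the KRAS–SOS1 interaction was measured by HTRF (ex 337, em 620/665 nm) after ≥~10 min incubation. Donor: anti-GST-Eu on GST-KRAS; acceptor: anti-6His-XL665 on His-hSOS1, in HEPES pH 7.4 buffer with DTT, BSA and Igepal. Compounds in duplicate at 0.01–10 μM; IC50 from emission ratio.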

KRAS WT = biological target: T2, KRAS WT (Homo sapiens, UniProt P01116); assay: HTRF KRAS-SOS1 interaction assay, wildtype KRAS; settings: binned ≤2 μM / >2 μM, read-out: Inhibition of KRAS WT (IC50)
T2 construct: made in house; host or cells: E. coli, e.g. BL21 (DE3)
Outline: as §1

KRAS G12V = biological target: T3, KRAS G12V (Homo sapiens, UniProt P01116, G12V); assay: HTRF KRAS-SOS1 interaction assay, KRAS G12V; settings: binned ≤2 μM / >2 μM, read-out: Inhibition of KRAS G12V (IC50)
T3 construct: made in house; host or cells: E. coli, e.g. BL21 (DE3)
Outline: as §1

KRAS G12S = biological target: T4, KRAS G12S (Homo sapiens, UniProt P01116, G12S); assay: HTRF KRAS-SOS1 interaction assay, KRAS G12S; settings: binned ≤2 μM / >2 μM, read-out: Inhibition of KRAS G12S (IC50)
T4 construct: made in house; host or cells: E. coli, e.g. BL21 (DE3)
Outline: as §1

T2 sequence (P01116 1-188 isoform P01116-2): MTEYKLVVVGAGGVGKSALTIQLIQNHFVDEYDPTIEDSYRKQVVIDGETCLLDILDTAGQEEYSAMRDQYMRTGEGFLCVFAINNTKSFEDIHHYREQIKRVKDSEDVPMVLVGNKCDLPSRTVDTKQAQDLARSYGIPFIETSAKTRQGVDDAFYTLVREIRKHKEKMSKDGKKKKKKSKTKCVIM
T4 sequence (P01116 1-188 isoform P01116-2 G12S): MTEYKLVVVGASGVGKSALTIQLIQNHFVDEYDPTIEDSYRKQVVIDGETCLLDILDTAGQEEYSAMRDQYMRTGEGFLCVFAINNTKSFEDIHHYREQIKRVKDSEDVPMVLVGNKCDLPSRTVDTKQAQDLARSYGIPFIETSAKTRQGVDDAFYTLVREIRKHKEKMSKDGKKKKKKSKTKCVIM
T3 sequence (P01116 1-188 isoform P01116-2 G12V): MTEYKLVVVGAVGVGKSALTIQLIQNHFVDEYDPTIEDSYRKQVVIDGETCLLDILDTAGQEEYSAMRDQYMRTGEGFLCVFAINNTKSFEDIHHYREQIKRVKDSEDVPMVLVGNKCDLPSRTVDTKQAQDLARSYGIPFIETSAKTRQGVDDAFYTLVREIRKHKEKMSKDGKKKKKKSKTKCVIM
T1 sequence (P01116 1-188 isoform P01116-2 G12D): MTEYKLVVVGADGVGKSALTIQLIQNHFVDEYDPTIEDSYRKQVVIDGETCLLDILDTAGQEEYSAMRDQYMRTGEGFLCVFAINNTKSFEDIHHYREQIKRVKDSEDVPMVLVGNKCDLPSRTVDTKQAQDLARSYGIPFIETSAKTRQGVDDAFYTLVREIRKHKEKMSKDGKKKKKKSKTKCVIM

SMILES	pIC50 (KRAS G12D)	pIC50 (KRAS WT)	pIC50 (KRAS G12V)	pIC50 (KRAS G12S)
C#C[C@H](c1cccnc1N)N1CCOc2c(Cl)c(-c3ccc(F)c4sc(N)c(C#N)c34)c(F)c3nc(OC[C@@]45CCCN4C[C@H](F)C5)nc1c23 [Compound 904, 2-amino-4-(4-((R)-1-(2-aminopyridin-3-yl)prop-2-yn-1-yl)-8-chloro-10-fluoro-2-(((2R,7aS)-2-fluorotetrahydro-1H-pyrrolizin-7a(5H)-yl)methoxy)-5,6-dihydro-4H-[1,4]oxazepino[5,6,7-de]quinazolin-9-yl)-7-fluorobenzo[b]thiophene-3-carbonitrile]	≥ 5.70	≥ 5.70	≥ 5.70	≥ 5.70
C[C@H](c1nccnc1N)N1CCOc2c(C(F)(F)F)c(-c3ccc(F)c4sc(N)c(C#N)c34)c(F)c3nc(OC[C@@]45CCCN4C[C@H](F)C5)nc1c23 (single isomer, unassigned) [Compound 760]	≥ 5.70	≥ 5.70	≥ 5.70	≥ 5.70
C=C(F)[C@@H](c1cccnc1N)N1CCOc2c(Cl)c(-c3ccc(F)c4sc(N)c(C#N)c34)c(F)c3nc(OC[C@@]45CCCN4C[C@H](F)C5)nc1c23 [Compound 601, 2-amino-4-(4-((R)-1-(2-aminopyridin-3-yl)-2-fluoroallyl)-8-chloro-10-fluoro-2-(((2R,7aS)-2-fluorotetrahydro-1H-pyrrolizin-7a(5H)-yl)methoxy)-5,6-dihydro-4H-[1,4]oxazepino[5,6,7-de]quinazolin-9-yl)-7-fluorobenzo[b]thiophene-3-carbonitrile]	≥ 5.70	≥ 5.70	≥ 5.70	≥ 5.70
CO[C@H]1CCN(C)[C@@H]1[C@H](C)Oc1nc2c3c(c(C(F)(F)F)c(-c4ccc(F)c5sc(N)c(C#N)c45)c(F)c3n1)OCCN2[C@H](C)c1cc(Cl)cnc1N [Compound 667, 2-amino-4-(4-((R)-1-(2-amino-5-chloropyridin-3-yl)ethyl)-10-fluoro-2-((S)-1-((2R,3S)-3-methoxy-1-methylpyrrolidin-2-yl)ethoxy)-8-(trifluoromethyl)-5,6-dihydro-4H-[1,4]oxazepino[5,6,7-de]quinazolin-9-yl)-7-fluorobenzo[b]thiophene-3-carbonitrile]	≥ 5.70	≥ 5.70	≥ 5.70	≥ 5.70
C[C@H](c1nccnc1N)N1CCOc2c(C(F)(F)F)c(-c3ccc(F)c4sc(N)c(C#N)c34)c(F)c3nc(OC[C@@]45CCCN4CC(=C(F)F)C5)nc1c23 [Compound 876, 2-amino-4-(4-((R)-1-(3-aminopyrazin-2-yl)ethyl)-2-(((S)-2-(difluoromethylene)tetrahydro-1H-pyrrolizin-7a(5H)-yl)methoxy)-10-fluoro-8-(trifluoromethyl)-5,6-dihydro-4H-[1,4]oxazepino[5,6,7-de]quinazolin-9-yl)-7-fluorobenzo[b]thiophene-3-carbonitrile]	≥ 5.70	≥ 5.70	≥ 5.70	≥ 5.70
C[C@H](c1cc(C2CC2)cnc1N)N1CCOc2c(C(F)(F)F)c(-c3ccc(F)c4sc(N)c(C#N)c34)c(F)c3nc(OC[C@@]45CCCN4C[C@H](F)C5)nc1c23 [Compound 654, 2-amino-4-(4-((R)-1-(2-amino-5-cyclopropylpyridin-3-yl)ethyl)-10-fluoro-2-(((2R,7aS)-2-fluorotetrahydro-1H-pyrrolizin-7a(5H)-yl)methoxy)-8-(trifluoromethyl)-5,6-dihydro-4H-[1,4]oxazepino[5,6,7-de]quinazolin-9-yl)-7-fluorobenzo[b]thiophene-3-carbonitrile]	≥ 5.70	≥ 5.70	≥ 5.70	≥ 5.70
C[C@H](c1cc(Cl)cnc1N)N1CCOc2c(C(F)(F)F)c(-c3ccc(F)c4sc(N)c(C#N)c34)c(F)c3nc(OC[C@@]45CCCN4C[C@@]4(CC4(F)F)C5)nc1c23 [Compound 713, 2-amino-4-(4-((R)-1-(2-amino-5-chloropyridin-3-yl)ethyl)-2-(((1S,7a′S)-2,2-difluorodihydro-1′H,3′H-spiro[cyclopropane-1,2′-pyrrolizin]-7a′(5′H)-yl)methoxy)-10-fluoro-8-(trifluoromethyl)-5,6-dihydro-4H-[1,4]oxazepino[5,6,7-de]quinazolin-9-yl)-7-fluorobenzo[b]thiophene-3-carbonitrile]	≥ 5.70	≥ 5.70	≥ 5.70	≥ 5.70

The next lines start with the values.

pIC50 (KRAS G12D)	pIC50 (KRAS WT)	pIC50 (KRAS G12V)	pIC50 (KRAS G12S)	SMILES
≥ 5.70	≥ 5.70	≥ 5.70	≥ 5.70	C[C@H](Oc1nc2c3c(c(Cl)c(-c4ccc(F)c5sc(N)c(C#N)c45)c(F)c3n1)OCCN2[C@H](C)c1cccnc1N)[C@@H]1CCCN1C (mixture of isomers) [Compound 803, 2-amino-4-(4-((R)-1-(2-aminopyridin-3-yl)ethyl)-8-chloro-10-fluoro-2-((S)-1-((S)-1-methylpyrrolidin-2-yl)ethoxy)-5,6-dihydro-4H-[1,4]oxazepino[5,6,7-de]quinazolin-9-yl)-7-fluorobenzo[b]thiophene-3-carbonitrile]
≥ 5.70	≥ 5.70	≥ 5.70	≥ 5.70	C#CCC(c1cccnc1N)N1CCOc2c(Cl)c(-c3ccc(F)c4sc(N)c(C#N)c34)c(F)c3nc(OC[C@@]45CCCN4C[C@H](F)C5)nc1c23 (single isomer, unassigned) [Compound 764]
≥ 5.70	≥ 5.70	≥ 5.70	≥ 5.70	C#Cc1c(F)ccc2cc(O)cc(-c3nc4c5c(nc(OC[C@@H]6CCCN6C)nc5c3F)N(C(C)c3cccnc3N)CCO4)c12 (single isomer, unassigned) [Compound 728]
≥ 5.70	≥ 5.70	≥ 5.70	≥ 5.70	CO[C@H]1CCN(C)[C@@H]1COc1nc2c3c(c(C(F)(F)F)c(-c4ccc(F)c5sc(N)c(C#N)c45)c(F)c3n1)OCCN2[C@H](C)c1cccnc1N [Compound 673, 2-amino-4-(4-((R)-1-(2-aminopyridin-3-yl)ethyl)-10-fluoro-2-(((2R,3S)-3-methoxy-1-methylpyrrolidin-2-yl)methoxy)-8-(trifluoromethyl)-5,6-dihydro-4H-[1,4]oxazepino[5,6,7-de]quinazolin-9-yl)-7-fluorobenzo[b]thiophene-3-carbonitrile]
≥ 5.70	≥ 5.70	≥ 5.70	≥ 5.70	N#Cc1c(N)sc2c(F)ccc(-c3c(C(F)(F)F)c4c5c(nc(OC[C@@]67CCCN6C[C@@]6(CC6(F)F)C7)nc5c3F)N([C@H](CCC(F)(F)F)c3cccnc3N)CCO4)c12 [Compound 883, 2-amino-4-(4-((R)-1-(2-aminopyridin-3-yl)-4,4,4-trifluorobutyl)-2-(((1S,7a′S)-2,2-difluorodihydro-1′H,3′H-spiro[cyclopropane-1,2′-pyrrolizin]-7a′(5′H)-yl)methoxy)-10-fluoro-8-(trifluoromethyl)-5,6-dihydro-4H-[1,4]oxazepino[5,6,7-de]quinazolin-9-yl)-7-fluorobenzo[b]thiophene-3-carbonitrile]
